Measurements as given in ChEMBL document CHEMBL2311451, “Discovery of a selective M₄ positive allosteric modulator based on the 3-amino-thieno[2,3-b]pyridine-2-carboxamide scaffold: development of ML253, a potent and brain penetrant compound that is active in a preclinical model of schizophrenia” (Bioorg Med Chem Lett, 2013).
Values belong to the compound of their own block, whether it stands above or below them.

Columns and labels:
[1] = target: T1, Muscarinic acetylcholine receptor M4 (Homo sapiens) (UniProt P08173); assay: Positive allosteric modulation of human muscarinic M4 receptor expressed in CHO-K1 cells assessed as leftward shift in acetylcholine response treated for 144 secs prior to acetylcholine addition measured for 5 mins by Fluo-4-AM based calcium mobilization assay relative to control; format: functional, cell-based
T1 sequence (whole entry): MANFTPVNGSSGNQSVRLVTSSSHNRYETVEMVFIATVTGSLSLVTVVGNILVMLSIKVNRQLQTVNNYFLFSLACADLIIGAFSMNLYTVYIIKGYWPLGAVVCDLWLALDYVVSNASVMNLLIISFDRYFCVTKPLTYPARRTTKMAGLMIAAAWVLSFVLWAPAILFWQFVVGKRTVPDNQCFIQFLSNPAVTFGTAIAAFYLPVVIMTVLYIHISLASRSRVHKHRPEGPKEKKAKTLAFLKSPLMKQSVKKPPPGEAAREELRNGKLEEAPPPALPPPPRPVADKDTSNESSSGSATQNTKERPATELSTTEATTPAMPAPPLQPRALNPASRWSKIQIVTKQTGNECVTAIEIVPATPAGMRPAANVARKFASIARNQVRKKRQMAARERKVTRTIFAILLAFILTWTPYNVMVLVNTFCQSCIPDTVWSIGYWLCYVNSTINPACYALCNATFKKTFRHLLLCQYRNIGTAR

[2] = target: T2, Muscarinic acetylcholine receptor M4 (Homo sapiens, UniProt P08173); assay: Positive allosteric modulation of human muscarinic M4 receptor expressed in CHO-K1 cells assessed as leftward shift in acetylcholine response treated for 144 secs prior to acetylcholine addition measured for 5 mins by Fluo-4-AM based calcium mobilization assay; format: functional, cell-based; settings: read-out: EC50
T2 sequence (P08173 whole entry): T1 sequence (whole entry)

[3] = target: Muscarinic acetylcholine receptor M3 (Rattus norvegicus, UniProt P08483); assay: Positive allosteric modulation of rat muscarinic M3 receptor assessed as acetylcholine response
Muscarinic acetylcholine receptor M3 (Rattus norvegicus, UniProt P08483), sequence (P08483 whole entry): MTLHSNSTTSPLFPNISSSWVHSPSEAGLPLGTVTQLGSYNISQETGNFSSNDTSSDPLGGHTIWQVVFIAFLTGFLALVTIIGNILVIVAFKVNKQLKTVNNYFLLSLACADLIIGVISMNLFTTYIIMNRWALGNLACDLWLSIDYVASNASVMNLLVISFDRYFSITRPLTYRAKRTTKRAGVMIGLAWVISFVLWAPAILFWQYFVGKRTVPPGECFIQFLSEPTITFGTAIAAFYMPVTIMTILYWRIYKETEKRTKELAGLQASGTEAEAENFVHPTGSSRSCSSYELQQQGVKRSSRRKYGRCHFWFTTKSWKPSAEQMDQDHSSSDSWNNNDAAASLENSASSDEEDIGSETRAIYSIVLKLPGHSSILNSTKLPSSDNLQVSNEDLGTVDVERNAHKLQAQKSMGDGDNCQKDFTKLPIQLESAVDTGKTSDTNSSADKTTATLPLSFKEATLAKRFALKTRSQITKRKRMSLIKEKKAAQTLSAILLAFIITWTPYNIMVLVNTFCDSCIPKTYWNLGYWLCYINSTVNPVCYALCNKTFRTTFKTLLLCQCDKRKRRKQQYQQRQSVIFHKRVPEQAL

[4] = target: Sodium-dependent dopamine transporter (Homo sapiens) (UniProt Q01959); assay: Binding affinity to human DAT at 10 uM by radioligand binding assay
Sodium-dependent dopamine transporter (Homo sapiens), sequence (Q01959 whole entry): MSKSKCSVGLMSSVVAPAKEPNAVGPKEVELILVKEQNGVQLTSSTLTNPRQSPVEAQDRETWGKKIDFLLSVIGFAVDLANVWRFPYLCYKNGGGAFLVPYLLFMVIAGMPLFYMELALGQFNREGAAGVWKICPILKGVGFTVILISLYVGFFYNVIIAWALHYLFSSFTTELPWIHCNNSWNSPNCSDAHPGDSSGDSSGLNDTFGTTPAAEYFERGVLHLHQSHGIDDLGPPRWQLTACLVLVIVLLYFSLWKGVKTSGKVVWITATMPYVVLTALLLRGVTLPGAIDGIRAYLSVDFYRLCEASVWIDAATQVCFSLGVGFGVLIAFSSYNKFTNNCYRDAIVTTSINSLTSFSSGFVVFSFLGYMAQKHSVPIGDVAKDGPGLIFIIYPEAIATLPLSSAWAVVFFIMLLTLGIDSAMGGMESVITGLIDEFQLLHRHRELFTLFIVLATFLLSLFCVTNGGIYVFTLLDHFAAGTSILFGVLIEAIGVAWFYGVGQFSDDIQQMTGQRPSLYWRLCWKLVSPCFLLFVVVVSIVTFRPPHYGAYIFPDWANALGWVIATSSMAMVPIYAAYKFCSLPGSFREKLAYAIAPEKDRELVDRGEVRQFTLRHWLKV

[5] = Clearance in rat at 1 mg/kg, iv; format: ADME, organism-based; set-up: dose 1 mg/kg, route intravenous; settings: in vivo
Plasma [6] = assay: Fraction unbound in rat plasma; format: ADME, cell-free
Rattus norvegicus [7] = assay: Antipsychotic activity in Sprague-Dawley rat assessed as reversal of amphetamine-induced hyperlocomotion at 10 mg/kg, ip after 90 mins; format: functional; settings: route intraperitoneal
[8] = Systemic plasma AUC in rat at 10 mg/kg, ip up to 6 hrs
[9] = target: Muscarinic acetylcholine receptor M1 (Homo sapiens, UniProt P11229); assay: Positive allosteric modulation of human muscarinic M1 receptor expressed in CHO-K1 cells assessed as leftward shift in acetylcholine response treated for 144 secs prior to acetylcholine addition measured for 5 mins by Fluo-4-AM based calcium mobilization assay; format: functional, cell-based
Muscarinic acetylcholine receptor M1 (Homo sapiens, UniProt P11229), sequence (P11229 whole entry): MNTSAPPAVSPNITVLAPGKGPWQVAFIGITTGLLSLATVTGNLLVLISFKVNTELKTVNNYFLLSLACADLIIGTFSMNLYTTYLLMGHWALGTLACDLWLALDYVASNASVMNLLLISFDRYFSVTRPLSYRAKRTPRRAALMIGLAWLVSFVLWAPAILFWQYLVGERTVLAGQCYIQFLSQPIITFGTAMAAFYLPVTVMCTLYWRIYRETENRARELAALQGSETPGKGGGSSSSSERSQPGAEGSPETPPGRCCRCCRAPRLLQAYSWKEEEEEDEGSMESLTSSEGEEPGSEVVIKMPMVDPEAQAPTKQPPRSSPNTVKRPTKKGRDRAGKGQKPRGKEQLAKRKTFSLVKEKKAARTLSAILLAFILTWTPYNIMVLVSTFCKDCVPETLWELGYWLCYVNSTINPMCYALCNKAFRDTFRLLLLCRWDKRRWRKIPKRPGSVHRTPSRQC

Rattus norvegicus [10] = assay: Antipsychotic activity in Sprague-Dawley rat assessed as reversal of amphetamine-induced hyperlocomotion at 3 mg/kg, ip after 90 mins; format: functional; settings: route intraperitoneal
[11] = target: Muscarinic acetylcholine receptor M1 (Rattus norvegicus, UniProt P08482); assay: Positive allosteric modulation of rat muscarinic M1 receptor assessed as acetylcholine response
Muscarinic acetylcholine receptor M1 (Rattus norvegicus, UniProt P08482), sequence (P08482 whole entry): as the sequence (P11229 whole entry) above, with A5V, T254S, P309S, R320K, A337G, I413V counted along it

[12] = target: T1, Muscarinic acetylcholine receptor M4 (Homo sapiens); assay: Positive allosteric modulation of human muscarinic M4 receptor expressed in CHO-K1 cells assessed as leftward shift in acetylcholine response at 10 uM treated for 144 secs prior to acetylcholine addition measured for 5 mins by Fluo-4-AM based calcium mobilization assay relative to acetylcholine; format: functional, cell-based
Rattus norvegicus [13] = assay: Antipsychotic activity in Sprague-Dawley rat assessed as reversal of amphetamine-induced hyperlocomotion at 56.6 mg/kg, ip after 90 mins; format: functional; settings: route intraperitoneal
[14] = target: Muscarinic acetylcholine receptor M2 (Rattus norvegicus, UniProt P10980); assay: Positive allosteric modulation of rat muscarinic M2 receptor assessed as acetylcholine response
Muscarinic acetylcholine receptor M2 (Rattus norvegicus, UniProt P10980), sequence (P10980 whole entry): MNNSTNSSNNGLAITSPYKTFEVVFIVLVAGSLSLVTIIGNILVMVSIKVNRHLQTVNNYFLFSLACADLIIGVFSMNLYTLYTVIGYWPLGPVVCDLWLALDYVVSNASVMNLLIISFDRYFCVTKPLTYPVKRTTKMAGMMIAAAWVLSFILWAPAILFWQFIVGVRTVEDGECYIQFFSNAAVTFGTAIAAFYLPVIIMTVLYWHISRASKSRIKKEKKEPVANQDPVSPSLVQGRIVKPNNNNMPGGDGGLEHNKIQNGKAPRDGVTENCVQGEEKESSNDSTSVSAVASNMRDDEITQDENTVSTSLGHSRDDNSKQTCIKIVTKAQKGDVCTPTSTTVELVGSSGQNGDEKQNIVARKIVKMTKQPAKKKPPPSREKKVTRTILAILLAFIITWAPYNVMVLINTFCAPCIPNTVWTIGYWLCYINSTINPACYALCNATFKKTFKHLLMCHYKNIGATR

[15] = target: Muscarinic acetylcholine receptor M4 (Rattus norvegicus) (UniProt P08485); assay: Positive allosteric modulation of rat muscarinic M4 receptor assessed as acetylcholine response at 10 uM relative to acetylcholine
[16] = Volume of distribution at steady state in rat at 1 mg/kg, iv; format: ADME, organism-based; set-up: dose 1 mg/kg, route intravenous; settings: in vivo, read-out: Vdss
Rattus norvegicus [17] = assay: Antipsychotic activity in Sprague-Dawley rat assessed as reversal of amphetamine-induced hyperlocomotion at 30 mg/kg, ip after 90 mins; format: functional; settings: route intraperitoneal
[18] = target: Muscarinic acetylcholine receptor M5 (Homo sapiens, UniProt P08912); assay: Positive allosteric modulation of human muscarinic M5 receptor expressed in CHO-K1 cells assessed as leftward shift in acetylcholine response treated for 144 secs prior to acetylcholine addition measured for 5 mins by Fluo-4-AM based calcium mobilization assay; format: functional, cell-based
Muscarinic acetylcholine receptor M5 (Homo sapiens, UniProt P08912), sequence (P08912 whole entry): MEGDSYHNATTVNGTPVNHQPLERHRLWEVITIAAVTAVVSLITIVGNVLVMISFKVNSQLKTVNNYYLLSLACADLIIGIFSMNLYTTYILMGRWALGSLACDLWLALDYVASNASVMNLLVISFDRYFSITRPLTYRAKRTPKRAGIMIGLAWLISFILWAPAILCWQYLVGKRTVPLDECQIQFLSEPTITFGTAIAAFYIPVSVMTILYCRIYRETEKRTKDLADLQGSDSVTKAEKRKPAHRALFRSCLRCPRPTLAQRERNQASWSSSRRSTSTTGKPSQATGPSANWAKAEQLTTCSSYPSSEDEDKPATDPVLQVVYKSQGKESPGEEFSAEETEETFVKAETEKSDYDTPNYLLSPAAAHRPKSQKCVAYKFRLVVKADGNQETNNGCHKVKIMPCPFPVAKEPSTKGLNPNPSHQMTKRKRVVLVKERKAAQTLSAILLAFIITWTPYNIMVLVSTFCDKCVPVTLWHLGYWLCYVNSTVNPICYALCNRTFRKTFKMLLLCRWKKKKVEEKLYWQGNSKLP

[19] = target: Muscarinic acetylcholine receptor M2 (Homo sapiens, UniProt P08172); assay: Positive allosteric modulation of human muscarinic M2 receptor expressed in CHO-K1 cells assessed as leftward shift in acetylcholine response treated for 144 secs prior to acetylcholine addition measured for 5 mins by Fluo-4-AM based calcium mobilization assay; format: functional, cell-based
Muscarinic acetylcholine receptor M2 (Homo sapiens, UniProt P08172), sequence (P08172 whole entry): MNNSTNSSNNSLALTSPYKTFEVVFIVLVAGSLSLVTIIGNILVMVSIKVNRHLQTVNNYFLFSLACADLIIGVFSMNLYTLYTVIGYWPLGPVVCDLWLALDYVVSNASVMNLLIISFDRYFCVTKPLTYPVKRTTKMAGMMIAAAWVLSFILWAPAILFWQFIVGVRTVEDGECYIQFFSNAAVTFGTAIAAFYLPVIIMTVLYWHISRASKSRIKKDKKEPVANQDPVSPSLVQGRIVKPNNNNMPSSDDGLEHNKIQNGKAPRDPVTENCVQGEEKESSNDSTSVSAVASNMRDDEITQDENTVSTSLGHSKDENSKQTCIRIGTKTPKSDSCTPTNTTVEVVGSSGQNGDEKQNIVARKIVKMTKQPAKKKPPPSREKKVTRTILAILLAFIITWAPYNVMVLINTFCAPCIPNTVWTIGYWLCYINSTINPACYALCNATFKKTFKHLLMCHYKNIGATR

Rattus norvegicus [20] = assay: Antipsychotic activity in ip dosed Sprague-Dawley rat assessed as reversal of amphetamine-induced hyperlocomotion after 90 mins; format: functional, organism-based
[21] = Mean residence time in rat at 1 mg/kg, iv; format: ADME, organism-based; set-up: dose 1 mg/kg, route intravenous; settings: in vivo
[22] = target: T3, Muscarinic acetylcholine receptor M4 (Rattus norvegicus, UniProt P08485); assay: Positive allosteric modulation of rat muscarinic M4 receptor assessed as acetylcholine response
T3 sequence (P08485 whole entry): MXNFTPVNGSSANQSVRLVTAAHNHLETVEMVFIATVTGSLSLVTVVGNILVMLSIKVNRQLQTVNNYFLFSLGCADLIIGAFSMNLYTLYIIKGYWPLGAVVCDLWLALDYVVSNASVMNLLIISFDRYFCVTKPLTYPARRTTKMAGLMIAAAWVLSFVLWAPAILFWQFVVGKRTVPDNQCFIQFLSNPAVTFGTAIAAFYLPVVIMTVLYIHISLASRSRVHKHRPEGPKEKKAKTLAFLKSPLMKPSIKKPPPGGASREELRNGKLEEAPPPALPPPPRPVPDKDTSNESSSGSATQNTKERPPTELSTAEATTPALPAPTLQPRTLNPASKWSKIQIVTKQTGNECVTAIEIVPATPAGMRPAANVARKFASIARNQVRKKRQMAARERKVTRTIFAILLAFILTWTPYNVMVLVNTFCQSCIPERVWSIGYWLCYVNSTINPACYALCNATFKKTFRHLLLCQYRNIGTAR

Brain = assay: Drug level in rat brain at 10 mg/kg, ip up to 6 hrs; format: ADME, organism-based; set-up: dose 10 mg/kg, route intraperitoneal; settings: in vivo
[23] = target: Muscarinic acetylcholine receptor M3 (Homo sapiens, UniProt P20309); assay: Positive allosteric modulation of human muscarinic M3 receptor expressed in CHO-K1 cells assessed as leftward shift in acetylcholine response treated for 144 secs prior to acetylcholine addition measured for 5 mins by Fluo-4-AM based calcium mobilization assay; format: functional, cell-based
Muscarinic acetylcholine receptor M3 (Homo sapiens, UniProt P20309), sequence (P20309 whole entry): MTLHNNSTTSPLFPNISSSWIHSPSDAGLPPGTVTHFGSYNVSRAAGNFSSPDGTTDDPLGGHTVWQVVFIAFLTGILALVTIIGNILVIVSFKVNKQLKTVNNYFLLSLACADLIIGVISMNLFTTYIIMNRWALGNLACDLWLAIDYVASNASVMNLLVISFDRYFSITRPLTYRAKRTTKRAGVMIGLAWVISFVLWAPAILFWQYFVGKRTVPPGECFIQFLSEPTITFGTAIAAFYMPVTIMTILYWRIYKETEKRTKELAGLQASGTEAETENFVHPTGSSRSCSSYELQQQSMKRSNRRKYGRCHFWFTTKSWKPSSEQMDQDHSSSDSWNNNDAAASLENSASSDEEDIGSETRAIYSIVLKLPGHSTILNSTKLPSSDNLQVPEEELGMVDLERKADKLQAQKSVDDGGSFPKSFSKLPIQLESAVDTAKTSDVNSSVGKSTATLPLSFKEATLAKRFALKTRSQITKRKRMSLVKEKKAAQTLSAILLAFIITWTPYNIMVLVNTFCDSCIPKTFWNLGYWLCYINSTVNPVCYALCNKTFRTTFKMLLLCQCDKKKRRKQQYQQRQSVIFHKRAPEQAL

[24] = Half life in rat at 1 mg/kg, iv; format: ADME, organism-based; set-up: dose 1 mg/kg, route intravenous; settings: in vivo
Rattus norvegicus [25] = species: Rattus norvegicus; assay: Binding affinity to rat GABAA receptor at 10 uM by radioligand binding assay
[26] = target: Muscarinic acetylcholine receptor M5 (Rattus norvegicus, UniProt P08911); assay: Positive allosteric modulation of rat muscarinic M5 receptor assessed as acetylcholine response
Muscarinic acetylcholine receptor M5 (Rattus norvegicus, UniProt P08911), sequence (P08911 whole entry): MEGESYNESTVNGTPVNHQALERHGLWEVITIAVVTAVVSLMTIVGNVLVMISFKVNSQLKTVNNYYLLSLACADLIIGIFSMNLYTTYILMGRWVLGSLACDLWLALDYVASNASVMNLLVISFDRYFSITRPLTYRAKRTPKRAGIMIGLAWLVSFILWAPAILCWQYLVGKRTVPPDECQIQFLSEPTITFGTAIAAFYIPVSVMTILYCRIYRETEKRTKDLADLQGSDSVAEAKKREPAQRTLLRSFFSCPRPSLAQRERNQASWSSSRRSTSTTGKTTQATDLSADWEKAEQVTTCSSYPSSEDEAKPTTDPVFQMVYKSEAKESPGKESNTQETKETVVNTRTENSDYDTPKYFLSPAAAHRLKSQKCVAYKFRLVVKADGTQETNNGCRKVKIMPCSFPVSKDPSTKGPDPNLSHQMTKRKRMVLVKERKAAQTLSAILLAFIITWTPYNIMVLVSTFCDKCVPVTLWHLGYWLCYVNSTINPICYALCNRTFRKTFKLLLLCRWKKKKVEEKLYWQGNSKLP

Rattus norvegicus [27] = assay: Antipsychotic activity in Sprague-Dawley rat assessed as reversal of amphetamine-induced hyperlocomotion at 100 mg/kg, ip after 90 mins; format: functional; settings: route intraperitoneal
[28] = AUC in rat at 1 mg/kg, iv; format: ADME, organism-based; set-up: dose 1 mg/kg, route intravenous; settings: plasma
[29] = target: Muscarinic acetylcholine receptor M1 (Homo sapiens) (UniProt P11229); assay: Positive allosteric modulation of human muscarinic M1 receptor expressed in CHO-K1 cells assessed as leftward shift in acetylcholine response treated for 144 secs prior to acetylcholine addition measured for 5 mins by Fluo-4-AM based calcium mobilization assay relative to control; format: functional, cell-based
Muscarinic acetylcholine receptor M1 (Homo sapiens), sequence (P11229 whole entry): as the sequence (P11229 whole entry) above

[30] = target: Muscarinic acetylcholine receptor M2 (Rattus norvegicus) (UniProt P10980); assay: Positive allosteric modulation of rat muscarinic M2 receptor assessed as acetylcholine response relative to control
Muscarinic acetylcholine receptor M2 (Rattus norvegicus), sequence (P10980 whole entry): as the sequence (P10980 whole entry) above

[31] = target: Muscarinic acetylcholine receptor M1 (Rattus norvegicus) (UniProt P08482); assay: Positive allosteric modulation of rat muscarinic M1 receptor assessed as acetylcholine response relative to control
Muscarinic acetylcholine receptor M1 (Rattus norvegicus), sequence (P08482 whole entry): as the sequence (P11229 whole entry) above, with A5V, T254S, P309S, R320K, A337G, I413V counted along it

Plasma [32] = assay: Fraction unbound in human plasma; format: ADME, cell-free
[33] = target: Muscarinic acetylcholine receptor M2 (Homo sapiens) (UniProt P08172); assay: Positive allosteric modulation of human muscarinic M2 receptor expressed in CHO-K1 cells assessed as leftward shift in acetylcholine response treated for 144 secs prior to acetylcholine addition measured for 5 mins by Fluo-4-AM based calcium mobilization assay relative to control; format: functional, cell-based
Muscarinic acetylcholine receptor M2 (Homo sapiens), sequence (P08172 whole entry): as the sequence (P08172 whole entry) above

%max [1]: 38%
EC50 [2]: 926 nM
Structure (SMILES): Cc1nc2sc(C(=O)NCCC3CCCN3C)c(N)c2c(C)c1Cl (stereo not given)

%max [1]: 51%
EC50 [2]: 810 nM
Structure (SMILES): Cc1nc2sc(C(=O)NCc3ncccn3)c(N)c2c(C)c1Cl

%max [1]: 69.7%
EC50 [2]: 1410 nM
Structure (SMILES): Cc1nc2sc(C(=O)NCC3CCCCC3)c(N)c2c(C)c1Cl

%max [1]: 92.2%
EC50 [2]: 52 nM
Structure (SMILES): Cc1nc2sc(C(=O)NC3CCOC3)c(N)c2c(C)c1Cl (stereo not given)

%max [1]: 74.5%
EC50 [2]: 326 nM
Structure (SMILES): Cc1nc2sc(C(=O)NCc3ccnnc3)c(N)c2c(C)c1Cl

EC50 [2]: > 30000 nM
Structure (SMILES): Cc1nc2sc(C(=O)NCc3ccccc3N(C)C)c(N)c2c(C)c1Cl

%max [1]: 75.8%
EC50 [2]: 61 nM
Structure (SMILES): Cc1cc(CNC(=O)c2sc3nc(C)c(Cl)c(C)c3c2N)ccn1

%max [1]: 57.3%
EC50 [2]: 669 nM
Structure (SMILES): Cc1nc2sc(C(=O)NC(C)c3cccnc3)c(N)c2c(C)c1Cl (stereo not given)

%max [1]: 71.7%
EC50 [2]: 80 nM
Structure (SMILES): Cc1nc2sc(C(=O)NCc3ccc4c(c3)OCO4)c(N)c2c(C)c1Cl

%max [1]: 77.3%
EC50 [2]: 147 nM
Structure (SMILES): Cc1nc2sc(C(=O)NC(C)C)c(N)c2c(C)c1Cl

EC50 [2]: > 30000 nM
Structure (SMILES): CCOc1ccc(NC(=O)c2sc3nc(C)c(Cl)c(C)c3c2N)cc1

Structure (SMILES): Cc1nc2sc(C(=O)NCc3ccncc3)c(N)c2c(C)c1Cl
EC50 [3]: > 30000 nM
inhibition [4]: 74%
clearance [5]: 104 mL/min/kg
Fu (Plasma [6]): 1.7%
Activity (Rattus norvegicus [7]): 25.7%
AUC at 6 h [8]: 3880 ng·h/mL
EC50 [9]: > 30000 nM
Activity (Rattus norvegicus [10]): 18.7%
EC50 [11]: > 30000 nM
fold change (FC) [12]: 106
%max [1]: 94.1%
Activity (Rattus norvegicus [13]): 53.7%
EC50 [14]: > 30000 nM
fold change (FC) [15]: 49.6
Vd [16]: 2.6 L/kg
Activity (Rattus norvegicus [17]): 47.9%
EC50 [18]: > 30000 nM
EC50 [19]: > 30000 nM
Activity (Rattus norvegicus [20]): Dose-dependent effect
MRT [21]: 27.5 min
EC50 [22]: 176 nM
Drug uptake (Brain): 3410 ng/g
EC50 [2]: 56 nM
EC50 [23]: > 30000 nM
half-life [24]: 17.5 min
inhibition (Rattus norvegicus [25]): 64%
EC50 [26]: > 30000 nM
Activity (Rattus norvegicus [27]): 57.3%
AUC [28]: 175 ng·h/mL

Structure (SMILES): Cc1nc2sc(C(=O)NC3CC3)c(N)c2c(C)c1Cl
EC50 [3]: > 30000 nM
%max [29]: 33%
Fu (Plasma [6]): 6.4%
EC50 [9]: 970 nM
EC50 [11]: 940 nM
fold change (FC) [12]: 224
%max [30]: 58%
%max [1]: 94%
EC50 [14]: 640 nM
fold change (FC) [15]: 54.1
EC50 [18]: > 30000 nM
EC50 [19]: 550 nM
EC50 [22]: 147 nM
%max [31]: 26%
EC50 [2]: 77 nM
EC50 [23]: > 30000 nM
Fu (Plasma [32]): 1.1%
EC50 [26]: > 30000 nM
%max [33]: 64%

%max [1]: 65.1%
EC50 [2]: 249 nM
Structure (SMILES): Cc1nc2sc(C(=O)NCc3nccs3)c(N)c2c(C)c1Cl

Structure (SMILES): Cc1cc(OCc2ccncc2)nc2sc(C(=O)NCc3cccc(F)c3F)c(N)c12
EC50 [22]: 900 nM
EC50 [2]: 500 nM

%max [1]: 85.7%
EC50 [2]: 418 nM
Structure (SMILES): COCCCNC(=O)c1sc2nc(C)c(Cl)c(C)c2c1N

%max [1]: 33.2%
EC50 [2]: 180 nM
Structure (SMILES): Cc1nc2sc(C(=O)NCc3ccc(Cl)cc3)c(N)c2c(C)c1Cl

%max [1]: 78.5%
EC50 [2]: 271 nM
Structure (SMILES): Cc1nc2sc(C(=O)NCc3ccncn3)c(N)c2c(C)c1Cl

%max [1]: 83.6%
EC50 [2]: 107 nM
Structure (SMILES): COc1ccc(CNC(=O)c2sc3nc(C)c(Cl)c(C)c3c2N)cc1
